Results from US4292317A, “1,4-Dihydro-quinoline-3-carboxylic acid derivatives, process for their preparation and compositions containing them” (Laboratorie Roger Bellon, priority 1977, dated 1981).
Converted amounts (≈) assume the structure as drawn.

Legend:
Type in all cases: cell-based
Staph. 9.144 = test: M.I.C. in vitro, nutrient agar dilution; conditions: 18 h; Table 2; Staph. 9.144 (Gram positive); read-out: M.I.C.
Method: (§1) After sterilisation at 120° C., the pH was 6.8.
(§2) The minimum inhibitory concentrations (M.I.C.) were determined by dilution of the test compounds in this mixture, the concentration ranging from 0.05 to 100 μg/cm^3 in a geometric progression with a factor of 2.
(§3) The inoculation of the dishes was carried out by means of a multiple inoculator with 10^-3 dilutions of 18 hour old broth cultures.
(§4) The dishes were placed in an oven at 37° C. and the readings were taken afer an incubation time of 18 hours. The M.I.C. was taken as the lowest concentration which inhibited a culture.

Providentia 0223 = test: M.I.C. in vitro, nutrient agar dilution; conditions: 18 h; Table 2; Providentia 0223 (Gram negative); read-out: M.I.C.
Method: as §1, §2, §3, §4

Klebs. pneum. 10.031 = test: M.I.C. in vitro, nutrient agar dilution; conditions: 18 h; Table 2; Klebs. pneum. 10.031 (Gram negative); read-out: M.I.C.
Method: as §1, §2, §3, §4

Esch. coli 54.127 O.M.S. = test: M.I.C. in vitro, nutrient agar dilution; conditions: Escherichia coli, 18 h; Table 2; Esch. coli 54.127 O.M.S. (Gram negative); read-out: M.I.C.
Method: as §1, §2, §3, §4

Pr. morganii A.236 = test: M.I.C. in vitro, nutrient agar dilution; conditions: Morganella morganii, 18 h; Table 2; Pr. morganii A.236 (Gram negative); read-out: M.I.C.
Method: as §1, §2, §3, §4

Esch. coli 95 I.S.M. = test: M.I.C. in vitro, nutrient agar dilution; conditions: Escherichia coli, 18 h; Table 2; Esch. coli 95 I.S.M. (Gram negative); read-out: M.I.C.
Method: as §1, §2, §3, §4

Arizona 6.211 = test: M.I.C. in vitro, nutrient agar dilution; conditions: 18 h; Table 2; Arizona 6.211 (Gram negative); read-out: M.I.C.
Method: as §1, §2, §3, §4

Serratia = test: M.I.C. in vitro, nutrient agar dilution; conditions: 18 h, Table 2, Berratia (Gram negative), read-out: M.I.C.
Method: as §1, §2, §3, §4

Ps. aeruginosa 72.345 = test: M.I.C. in vitro, nutrient agar dilution; conditions: Pseudomonas aeruginosa, 18 h; Table 2; Ps. aeruginosa 72.345 (Gram negative); read-out: M.I.C.
Method: as §1, §2, §3, §4

S. enteritidis Danysz = test: M.I.C. in vitro, nutrient agar dilution; conditions: Salmonella enterica, 18 h; Table 2; S. enteritidis Danysz (Gram negative); read-out: M.I.C.
Method: as §1, §2, §3, §4

Esch. coli 111 B4 = test: M.I.C. in vitro, nutrient agar dilution; conditions: Escherichia coli, 18 h; Table 2; Esch. coli 111 B4 (Gram negative)
Method: as §1, §2, §3, §4

Sh. sonnei I.P.S. = test: M.I.C. in vitro, nutrient agar dilution; conditions: Shigella sonnei, 18 h; Table 2; Sh. sonnei I.P.S. (Gram negative); read-out: M.I.C.
Method: as §1, §2, §3, §4

Pr. mirabilis Nig = test: M.I.C. in vitro, nutrient agar dilution; conditions: Proteus mirabilis, 18 h; Table 2; Pr. mirabilis Nig (Gram negative); read-out: M.I.C.
Method: as §1, §2, §3, §4

Ps. aeruginosa A.22 = test: M.I.C. in vitro, nutrient agar dilution; conditions: Pseudomonas aeruginosa, 18 h; Table 2; Ps. aeruginosa A.22 (Gram negative); read-out: M.I.C.
Method: as §1, §2, §3, §4

Strepto A 561 = test: M.I.C. in vitro, nutrient agar dilution; conditions: 18 h; Table 2; Strepto A 561 (Gram positive)
Method: as §1, §2, §3, §4

Strepto D.M. 19 = test: M.I.C. in vitro, nutrient agar dilution; conditions: 18 h; Table 2; Strepto D.M. 19 (Gram positive); read-out: M.I.C.
Method: as §1, §2, §3, §4

S. oranienburg 1066 = test: M.I.C. in vitro, nutrient agar dilution; conditions: Salmonella enterica, 18 h; Table 2; S. oranienburg 1066 (Gram negative); read-out: M.I.C.
Method: as §1, §2, §3, §4

Bord. bronchis. 4.617 = test: M.I.C. in vitro, nutrient agar dilution; conditions: 18 h; Table 2; Bord. bronchis. 4.617 (Gram negative); read-out: M.I.C.
Method: as §1, §2, §3, §4

B. subtilis = test: M.I.C. in vitro, nutrient agar dilution; conditions: Bacillus subtilis, 18 h; Table 2; B. subtilis (Gram positive); read-out: M.I.C.
Method: as §1, §2, §3, §4

Staph. 209 P = test: M.I.C. in vitro, nutrient agar dilution; conditions: 18 h; Table 2; Staph. 209 P (Gram positive); read-out: M.I.C.
Method: as §1, §2, §3, §4

Pr. vulgaris 12-53 = test: M.I.C. in vitro, nutrient agar dilution; conditions: Proteus vulgaris, 1253, 18 h; Table 2; Pr. vulgaris 12-53 (Gram negative); read-out: M.I.C.
Method: as §1, §2, §3, §4

Salm. typhi 0901 = test: microbe, parasite or virus in culture; conditions: Salmonella enterica, 18 h; Table 2; Salm. typhi 0901 (Gram negative)
Method: as §1, §2, §3, §4

SMILES	MIC (Staph. 9.144) [µg/mL]	MIC (Providentia 0223) [µg/mL]	MIC (Klebs. pneum. 10.031) [µg/mL]	MIC (Esch. coli 54.127 O.M.S.) [µg/mL]	MIC (Pr. morganii A.236) [µg/mL]	MIC (Esch. coli 95 I.S.M.) [µg/mL]	MIC (Arizona 6.211) [µg/mL]	MIC (Serratia) [µg/mL]	MIC (Ps. aeruginosa 72.345) [µg/mL]	MIC (S. enteritidis Danysz) [µg/mL]	MIC (Esch. coli 111 B4) [µg/mL]	MIC (Sh. sonnei I.P.S.) [µg/mL]	MIC (Pr. mirabilis Nig) [µg/mL]	MIC (Ps. aeruginosa A.22) [µg/mL]	MIC (Strepto A 561) [µg/mL]	MIC (Strepto D.M. 19) [µg/mL]	MIC (S. oranienburg 1066) [µg/mL]	MIC (Bord. bronchis. 4.617) [µg/mL]	MIC (B. subtilis) [µg/mL]	MIC (Staph. 209 P) [µg/mL]	further results
CCn1cc(C(=O)O)c(=O)c2ccc(N3CCN(CCO)CC3)cc21 [Example T4, reference compound]	3.1 (≈ 8.98 µM)	> 100	3.1 (≈ 8.98 µM)	6.2 (≈ 18 µM)	3.1 (≈ 8.98 µM)	6.2 (≈ 18 µM)	12.5 (≈ 36.2 µM)	> 100	100 (≈ 290 µM)	12.5 (≈ 36.2 µM)	6.2 (≈ 18 µM)	6.2 (≈ 18 µM)	50 (≈ 145 µM)	100 (≈ 290 µM)	> 100	100 (≈ 290 µM)	> 100	100 (≈ 290 µM)	3.1 (≈ 8.98 µM)	6.2 (≈ 18 µM)	MIC (Pr. vulgaris 12-53): 25 µg/mL (≈ 72.4 µM); MIC (Salm. typhi 0901): 25 µg/mL (≈ 72.4 µM)
CCn1cc(C(=O)O)c(=O)c2cc(Cl)c(N3CCN(Cc4ccccc4)CC3)cc21 [Example 5, 7-(4-Benzylpiperazinyl)-6-chloro-1-ethyl-4-oxo-1,4-dihydro-quinoline-3-carboxylic acid]	0.8 (≈ 1.88 µM)	50 (≈ 117 µM)	0.4 (≈ 0.939 µM)	6.2 (≈ 14.6 µM)	3.1 (≈ 7.28 µM)	3.1 (≈ 7.28 µM)	3.1 (≈ 7.28 µM)	3.1 (≈ 7.28 µM)	25 (≈ 58.7 µM)	6.2 (≈ 14.6 µM)	3.1 (≈ 7.28 µM)	1.6 (≈ 3.76 µM)	6.2 (≈ 14.6 µM)	25 (≈ 58.7 µM)	6.2 (≈ 14.6 µM)	6.2 (≈ 14.6 µM)	100 (≈ 235 µM)	12.5 (≈ 29.3 µM)	0.4 (≈ 0.939 µM)	0.2 (≈ 0.47 µM)	MIC (Pr. vulgaris 12-53): 6.2 µg/mL (≈ 14.6 µM); MIC (Salm. typhi 0901): 6.2 µg/mL (≈ 14.6 µM)
CCn1cc(C(=O)O)c(=O)c2cc(Cl)c(N3CCN(CCO)CC3)cc21 [Example 4, 6-chloro-1-ethyl-7-[4-(β-hydroxyethyl)-piperazinyl]-4-oxo-1,4-dihydro-quinoline-3-carboxylic acid]	0.4 (≈ 1.05 µM)	25 (≈ 65.8 µM)	0.4 (≈ 1.05 µM)	3.1 (≈ 8.16 µM)	1.6 (≈ 4.21 µM)	1.6 (≈ 4.21 µM)	1.6 (≈ 4.21 µM)	25 (≈ 65.8 µM)	12.5 (≈ 32.9 µM)	3.1 (≈ 8.16 µM)	3.1 (≈ 8.16 µM)	0.8 (≈ 2.11 µM)	3.1 (≈ 8.16 µM)	12.5 (≈ 32.9 µM)	6.2 (≈ 16.3 µM)	6.2 (≈ 16.3 µM)	25 (≈ 65.8 µM)	6.2 (≈ 16.3 µM)	6.2 (≈ 16.3 µM)	0.4 (≈ 1.05 µM)	MIC (Pr. vulgaris 12-53): 1.6 µg/mL (≈ 4.21 µM); MIC (Salm. typhi 0901): 3.1 µg/mL (≈ 8.16 µM)
